Laboratory results as given in PubChem BioAssay AID248 (DTP/NCI, 2004).
“And” between values parts separate entries of the source, which are not always exact repeats. Identical values can stand only once. Toxic doses and inconclusive results are not listed. Rule as the data show it: active = T/C of 150% or more; inactive = T/C below 125%.

Tested on: L1210 leukemia ip in BDF1 mice, survival T/C
Assay: NCI In Vivo Anticancer Drug Screen. Data for tumor model L1210 Leukemia (intraperitoneal) in B6D2F1 (BDF1) mice
Conditions: endpoint: mean survival time, higher = longer survival
How it was run: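 Antitumor effect is assessed in tumor-bearing animals. Survival in the compound arm is compared with a vehicle-dosed control arm and expressed as their quotient.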

[1] = dose: 12.5 mg/kg/injection, schedule: Q01DX009 (ip), vehicle: Klucel (hydroxypropylcellulose) (HPC)
[2] = dose: 25.0 mg/kg/injection, schedule: Q01DX009 (ip), vehicle: Klucel (hydroxypropylcellulose) (HPC)
[3] = dose: 25.0 mg/kg/injection, schedule: Q04DX003 (ip), vehicle: Klucel (hydroxypropylcellulose) (HPC)
[4] = dose: 50.0 mg/kg/injection, schedule: Q01DX009 (ip), vehicle: Klucel (hydroxypropylcellulose) (HPC)
[5] = dose: 100.0 mg/kg/injection, schedule: Q04DX003 (ip), vehicle: Klucel (hydroxypropylcellulose) (HPC)
[6] = dose: 200.0 mg/kg/injection, schedule: Q04DX003 (ip), vehicle: Klucel (hydroxypropylcellulose) (HPC)
[7] = dose: 100.0 mg/kg/injection, schedule: Q04DX002 (ip), vehicle: Klucel (hydroxypropylcellulose) (HPC)

Measured: T/C

CCCCCCCCCCC[n+]1cccc(C#N)c1
inactive: dose: 5.0 mg/kg/injection, schedule: Q01DX009 (ip), vehicle: saline 101 % of control | dose: 10.0 mg/kg/injection, schedule: Q01DX001 (ip), vehicle: saline 94 % of control | dose: 10.0 mg/kg/injection, schedule: Q01DX009 (ip), vehicle: saline 93 % of control | dose: 10.0 mg/kg/injection, schedule: Q04DX003 (ip), vehicle: saline 98 % of control | dose: 20.0 mg/kg/injection, schedule: Q01DX001 (ip), vehicle: saline 101 % of control | dose: 20.0 mg/kg/injection, schedule: Q01DX009 (ip), vehicle: saline 95 % of control | dose: 20.0 mg/kg/injection, schedule: Q04DX003 (ip), vehicle: saline 93 % of control | dose: 40.0 mg/kg/injection, schedule: Q01DX001 (ip), vehicle: saline 108 % of control | dose: 40.0 mg/kg/injection, schedule: Q04DX003 (ip), vehicle: saline 95 % of control

CNCc1ccccc1C(O)c1ccc(Cl)cc1 (configuration not stated)
inactive: dose: 3.12 mg/kg/injection, schedule: Q01DX009 (ip), vehicle: Klucel (hydroxypropylcellulose) (HPC) 98 % of control | dose: 6.25 mg/kg/injection, schedule: Q01DX009 (ip), vehicle: Klucel (hydroxypropylcellulose) (HPC) 96 % of control | [1] 96 % of control | [2] 94 % of control | [3] 97 % of control and 98 % of control | [4] 102 % of control | dose: 50.0 mg/kg/injection, schedule: Q04DX003 (ip), vehicle: Klucel (hydroxypropylcellulose) (HPC) 94 % of control | dose: 100.0 mg/kg/injection, schedule: Q01DX009 (ip), vehicle: Klucel (hydroxypropylcellulose) (HPC) 86 % of control | [5] 104 % of control | [6] 122 % of control

CC[N+](CC)(CCOc1ccc(C(C)(C)CC(C)(C)C)cc1)Cc1ccccc1
inactive: dose: 1.25 mg/kg/injection, schedule: Q01DX009 (ip), vehicle: saline with Tween-80 86 % of control

COc1ccc2c(c1)CCC(CC(C)=O)C2=O (configuration not stated)
inactive: dose: 100.0 mg/kg/injection, schedule: Q04DX003 (ip), vehicle: saline sonified 99 % of control | dose: 200.0 mg/kg/injection, schedule: Q04DX003 (ip), vehicle: saline sonified 90 % of control | dose: 400.0 mg/kg/injection, schedule: Q04DX003 (ip), vehicle: saline sonified 89 % of control

O=C(Nc1csnn1)c1ccco1
inactive: dose: 50.0 mg/kg/injection, schedule: Q01DX001 (ip), vehicle: other 104 % of control | dose: 100.0 mg/kg/injection, schedule: Q01DX001 (ip), vehicle: other 115 % of control | dose: 200.0 mg/kg/injection, schedule: Q01DX001 (ip), vehicle: other 104 % of control | dose: 400.0 mg/kg/injection, schedule: Q01DX001 (ip), vehicle: other 110 % of control

CC(C)(C)[N+](Cc1ccccc1)(Cc1ccccc1)Cc1ccccc1
inactive: dose: 100.0 mg/kg/injection, schedule: Q04DX003 (ip), vehicle: saline with Tween-80 100 % of control | dose: 200.0 mg/kg/injection, schedule: Q04DX003 (ip), vehicle: saline with Tween-80 100 % of control | dose: 400.0 mg/kg/injection, schedule: Q04DX003 (ip), vehicle: saline with Tween-80 104 % of control

COc1ccc(/C(=N\N=C(N)N)C2CC2)cc1
inactive: dose: 120.0 mg/kg/injection, schedule: Q01DX Z (oral), vehicle: carboxymethylcellulose (CMC) 90 % of control

N#CCCN(CCC#N)C(=O)Cl
inactive: dose: 100.0 mg/kg/injection, schedule: Q01DX001 (sc), vehicle: olive oil, sesame oil, peanut oil 97 % of control | dose: 200.0 mg/kg/injection, schedule: Q01DX001 (sc), vehicle: olive oil, sesame oil, peanut oil 97 % of control | dose: 400.0 mg/kg/injection, schedule: Q01DX001 (sc), vehicle: olive oil, sesame oil, peanut oil 98 % of control

CN(C)CCC=C1c2ccccc2C=Cc2ccccc21
inactive: dose: 3.12 mg/kg/injection, schedule: Q01DX009 (ip), vehicle: saline 98 % of control | dose: 6.25 mg/kg/injection, schedule: Q01DX009 (ip), vehicle: saline 93 % of control and 104 % of control | dose: 12.5 mg/kg/injection, schedule: Q01DX009 (ip), vehicle: saline 107 % of control and 96 % of control | dose: 25.0 mg/kg/injection, schedule: Q01DX009 (ip), vehicle: saline 98 % of control and 101 % of control | dose: 25.0 mg/kg/injection, schedule: Q04DX003 (ip), vehicle: saline 112 % of control and 103 % of control | dose: 50.0 mg/kg/injection, schedule: Q01DX009 (ip), vehicle: saline 109 % of control | dose: 50.0 mg/kg/injection, schedule: Q04DX003 (ip), vehicle: saline 98 % of control and 105 % of control

CCN(CC)CCCN=C(N)CCl
inactive: [1] 96 % of control | [2] 96 % of control | dose: 25.0 mg/kg/injection, schedule: Q04DX002 (ip), vehicle: Klucel (hydroxypropylcellulose) (HPC) 114 % of control | dose: 50.0 mg/kg/injection, schedule: Q04DX002 (ip), vehicle: Klucel (hydroxypropylcellulose) (HPC) 107 % of control | [7] 95 % of control

O=C1C=CC(=O)C(c2ccccc2)=C1
inactive: dose: 6.0 mg/kg/injection, schedule: Q04DX003 (ip), vehicle: Klucel (hydroxypropylcellulose) (HPC) 95 % of control | dose: 12.0 mg/kg/injection, schedule: Q01DX001 (ip), vehicle: saline 104 % of control | dose: 12.0 mg/kg/injection, schedule: Q01DX009 (ip), vehicle: Klucel (hydroxypropylcellulose) (HPC) 90 % of control | dose: 12.0 mg/kg/injection, schedule: Q04DX003 (ip), vehicle: Klucel (hydroxypropylcellulose) (HPC) 98 % of control | dose: 25.0 mg/kg/injection, schedule: Q01DX001 (ip), vehicle: saline 100 % of control | [2] 100 % of control | [3] 98 % of control | [4] 100 % of control

CNc1ccccc1C(=O)N/N=C/c1ccccc1Cl
inactive: [7] 108 % of control | dose: 200.0 mg/kg/injection, schedule: Q04DX002 (ip), vehicle: Klucel (hydroxypropylcellulose) (HPC) 93 % of control | dose: 400.0 mg/kg/injection, schedule: Q04DX002 (ip), vehicle: Klucel (hydroxypropylcellulose) (HPC) 86 % of control

OC(C1CCCCC1)(C1CCCCC1)C1CCCCC1
inactive: dose: 100.0 mg/kg/injection, schedule: Q01DX009 (ip), vehicle: saline with Tween-80 101 % of control | [5] 91 % of control | dose: 200.0 mg/kg/injection, schedule: Q01DX009 (ip), vehicle: saline with Tween-80 96 % of control | [6] 92 % of control | dose: 400.0 mg/kg/injection, schedule: Q01DX009 (ip), vehicle: saline with Tween-80 96 % of control | dose: 400.0 mg/kg/injection, schedule: Q04DX003 (ip), vehicle: Klucel (hydroxypropylcellulose) (HPC) 96 % of control

O=C(CCCN1CC=C(c2ccccc2)CC1)c1ccc(N2CCC(O)(c3ccc(Cl)cc3)CC2)cc1
inactive: dose: 100.0 mg/kg/injection, schedule: Q01DX001 (ip), vehicle: Klucel (hydroxypropylcellulose) (HPC) 89 % of control | dose: 200.0 mg/kg/injection, schedule: Q01DX001 (ip), vehicle: Klucel (hydroxypropylcellulose) (HPC) 95 % of control | dose: 400.0 mg/kg/injection, schedule: Q01DX001 (ip), vehicle: Klucel (hydroxypropylcellulose) (HPC) 92 % of control

OC1CC2(Cl)C(Cl)=C(Cl)C1(Cl)C2(Cl)Cl (configuration not stated)
inactive: dose: 75.0 mg/kg/injection, schedule: Q01DX001 (ip), vehicle: carboxymethylcellulose (CMC) 87 % of control | dose: 150.0 mg/kg/injection, schedule: Q01DX001 (ip), vehicle: carboxymethylcellulose (CMC) 95 % of control | dose: 300.0 mg/kg/injection, schedule: Q01DX001 (ip), vehicle: carboxymethylcellulose (CMC) 93 % of control

COc1ccc(C=C2CCC2)cc1
inactive: dose: 100.0 mg/kg/injection, schedule: Q04DX003 (ip), vehicle: gum acacia 95 % of control | dose: 200.0 mg/kg/injection, schedule: Q04DX003 (ip), vehicle: gum acacia 99 % of control | dose: 400.0 mg/kg/injection, schedule: Q04DX003 (ip), vehicle: gum acacia 99 % of control
